≈ marks a conversion by molar mass, not a printed value.
Experiments:
[1] = Immunomodulatory activity, two-way mixed lymphocyte reaction assay (% LCV); type: cell-based, murine; settings: mouse, lymphocytes
Source text: This example concerns immunomodulatory activity of compounds of the invention on murine derived, two-way mixed lymphocyte reaction assay.

[2] = test system: P388 mouse leukemia cells; test: P338 (P388) Mouse Leukemia Cell Assay, in vitro; type: cell-based; settings: 48 hours
Description: (§1) The following assay methods are utilized to evaluate the antitumor activity of the alkaloid compounds of the invention.
P338 Mouse Leukemia Cell Assay
(§2) Maintenance of Cell Lines
P338 mouse leukemis cells are grown in Dulbecco MEM medium with 10% horse serum, 4 mM glutamine, and 20 ug/ml gentamycin (Biologos, Inc.). Cells are incubated in humidified air containing 10% CO2 at 37° C. and subcultured 2 time per week.
1. Add compound to each well of a 24-well plate to tube and allow solvent to evaporate to dryness.
2. Add 2 ml (1.2×10^5) cells to each well or tube and mix.
3. Incubate in 10% CO2 at 37° C. for 48 hours.
4. Read plates with an inverted microscope, scoring activity from 1+ to 4+ as follows: ND (not detectable), 90% 1+, 75-90% 2+, 50-74% 3+, 25-49% 4+, 25% of control growth.
Alternatively, the activity may be designated as IC50 concentration which is the concentration of compound required to inhibit 50% of cell growth on the plate.
Cell counts are performed on each tube and results are reported as percent of control.

Mouse P388 = Mouse P388 in vivo antitumor activity (T/C); settings: Mouse P388, at 5 mg/kg
[3] = test system: HCT-8 human colon tumor cells; test: Human Tumor Cell Line Assay, HCT-8; type: cell-based; settings: 120 hours, read-out: HCT-8 activity score (cell density vs control)
Description: as §1
(§3) Human Tumor Cell Line Assay
as §2
(§4) HCT-8 human colon tumor cells are grown in RPMI 1640 medium. A-549 human lung carcinoma cells are grown in Dublecco MEM medium. T-47D human breast cancer cells are cultured in Eagles MEM medium. All media (Biologos, Inc.) are supplemented with 10% fetal bovine serum and contain 50 ug/ml gentamicin. All humand tumor cell lines are incubated in humidified air containing 5% CO2 at 37° C. and subcultured once a week. The seeding levels are 200,000 T-47D cells, 60,000 HCT-8 cells and 300,000 A-549 cells per T-25 Flask. Vinblastine is used as a positive control.
(§5) 2. Incubate is a CO2 incubator for 48 hours.
(§6) 3. Add compound to each well and incubate for an additional 120 hours.
(§7) 4. Discard medium and stain with methylene blue (HCT-8) or crystal violet (A-549 and T-47D).
(§8) 5. Compare cell density of compound-treated with that of the control (no compound added) as follows: ND (not detectable), 90% 1+, 75-90% 2+, 50-74% 3+, 25-49% 4+, 25% of control growth.
(§9) The positive control is Vinblastine in aqueous solution at the following concentrations: […]

[4] = test system: A-549 human lung carcinoma cells; test: Human Tumor Cell Line Assay, A-549; type: cell-based; settings: 120 hours, read-out: A-549 activity score (cell density vs control)
Description: as §1, §3, §2, §4, §5, §6, §7, §8, §9

[5] = test system: T-47D human breast cancer cells; test: Human Tumor Cell Line Assay, T-47D; type: cell-based; settings: T47D, 120 hours, read-out: T-47D activity score (cell density vs control)
Description: as §1, §3, §2, §4, §5, §6, §7, §8, §9

SMILES | viability ([1]; 0.01 ug/well) | viability ([1]; 0.1 ug/well) | viability ([1]; 1.0 ug/well) | viability ([1]; 10.0 ug/well) | IC50 [2] | in vivo T/C (Mouse P388) | activity at 0.01 µg/mL ([3]; 0.01 ug/ml) | activity at 0.1 µg/mL ([3]; 0.1 ug/ml) | activity at 1 µg/mL ([3]; 1 ug/ml) | activity at 2 µg/mL ([3]; 2 ug/ml) | activity at 0.01 µg/mL ([4]; A549, 0.01 ug/ml) | activity at 0.1 µg/mL ([4]; A549, 0.1 ug/ml) | activity at 1 µg/mL ([4]; A549, 1 ug/ml) | activity at 2 µg/mL ([4]; A549, 2 ug/ml) | activity at 0.01 µg/mL ([5]; 0.01 ug/ml) | activity at 0.1 µg/mL ([5]; 0.1 ug/ml) | activity at 1 µg/mL ([5]; 1 ug/ml) | activity at 2 µg/mL ([5]; 2 ug/ml)
CN(C)CCc1c2c3c(c4scnc14)N(C)CCC3c1ccccc1N2 (stereo not shown) [Tetrahydrodercitin 1, tetrahydrodercitin 1] | 100% | 91% | 49% | 41% |  |  |  |  |  |  |  |  |  |  |  |  |  | 
CN(C)CCc1c2ncsc2c2c3c(c4ccccc4nc13)C=CN2C [Dercitin 1, dercitin 1] | 56% | 48% | 46% | 67% | 0.05 µg/mL (≈ 0.139 µM) | 170% | > 90% | < 25% | < 25% | < 25% | > 90% | < 25% | < 25% | < 25% | > 90% | < 25% | < 25% | < 25%

From patent publication US4868191A, “Alkaloid compounds, and pharmaceutical compositions containing them” (Harbor Branch Oceanographic Institution, Inc., priority 1988, dated 1989)
